≈ marks a conversion by molar mass, not a printed value. Like-named read-outs stand apart in the source and are kept apart here.
What was measured:
PBP2 [1] = target: T1, PBP2 (Acinetobacter baumannii, UniProt D0C8Z9); design: method as in earlier work; conditions: value in parentheses; A. baumannii ATCC 19606; cited from earlier work
T1 construct: Five microliters of total bacterial membrane preparation was mixed with 5 μL of a test compound; endogenous in cells
T1 sequence (D0C8Z9 1-672): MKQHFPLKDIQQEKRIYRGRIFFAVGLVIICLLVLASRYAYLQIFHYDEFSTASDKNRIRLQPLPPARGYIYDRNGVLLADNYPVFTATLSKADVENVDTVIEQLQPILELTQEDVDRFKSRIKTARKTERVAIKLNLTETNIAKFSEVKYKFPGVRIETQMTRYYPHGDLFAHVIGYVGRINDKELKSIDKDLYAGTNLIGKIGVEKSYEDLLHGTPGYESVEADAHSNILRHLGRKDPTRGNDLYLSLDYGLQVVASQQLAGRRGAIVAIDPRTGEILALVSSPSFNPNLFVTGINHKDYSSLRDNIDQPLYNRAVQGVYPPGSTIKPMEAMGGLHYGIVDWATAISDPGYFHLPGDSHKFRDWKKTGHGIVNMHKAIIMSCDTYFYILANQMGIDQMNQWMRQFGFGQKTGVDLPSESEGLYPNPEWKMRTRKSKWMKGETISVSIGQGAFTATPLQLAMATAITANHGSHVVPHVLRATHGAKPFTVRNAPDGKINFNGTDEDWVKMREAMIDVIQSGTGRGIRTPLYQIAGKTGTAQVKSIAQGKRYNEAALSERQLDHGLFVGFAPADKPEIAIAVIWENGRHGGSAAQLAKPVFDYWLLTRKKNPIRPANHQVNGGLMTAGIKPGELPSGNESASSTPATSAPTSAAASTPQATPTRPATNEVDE

PBP2 [2] = target: PBP2 (Klebsiella pneumoniae, UniProt A6T696); design: method as in PMID 29712652; conditions: read-out: IC50, PBP2; value in parentheses; K. pneumoniae ATCC 43816; cited from earlier work
E. coli strain ECM5497 = conditions: xeruborbactam at ≥2× MIC, 48 h at 37°C
Procedure: (§1) Beta-lactamase-negative strains of E. coli (strain ECM5497), A. baumannii (strain AB1007), and K. pneumoniae (strain KPM1026a) were used in resistance development studies. […] […] Single colonies from xeruborbactam-containing plates were grown twice on a nonselective medium before their antimicrobial-resistance levels were assessed. For K. pneumoniae KPM1026a, several independent cultures were used in resistance studies.

[3] = tested on: A. baumannii strain AB1007; conditions: xeruborbactam at ≥2× MIC, 48 h at 37°C
Procedure: as §1

Other Enterobacterales = test: Broth microdilution MIC (CLSI), other Enterobacterales; assay type: cell-based; conditions: 18 isolates
Text: (§2) Bacterial isolates were subjected to broth microdilution susceptibility testing, performed according to Clinical and Laboratory Standards Institute (CLSI) methods ([46]), using panels prepared in-house. Meropenem was purchased from Sandoz, and all other antibiotics were from Sigma-Aldrich. Xeruborbactam was synthesized at Qpex Biopharma, San Diego, CA. Avibactam was purchased from eNovation Chemicals LLC, Bridgewater, NJ, USA; zidebactam was from MedKoo Biosciences, Inc., Morrisville, NC, and nacubactam was from Advanced ChemBlocks, Hayward, CA. Durlobactam was synthesized at Acme Bioscience, Palo Alto, CA, USA.

[4] = tested on: major PBPs in total membrane preparations; test: Bocillin FL competition PBP binding assay, probe incubation at 30°C; design: species or system E. coli, K. pneumoniae, A. baumannii, and P. aeruginosa; conditions: concentrations up to 300 μM; fluorescent probe incubation at 30°C
Procedure: Ten milliliters of overnight bacterial culture was inoculated in 1 L of LB medium and grown to an OD600 of 0.7 to 0.9. The cell pellet was washed once with 50 mL of solution containing 100 mM Na-phosphate at pH 7.0 and 100 mM NaCl and resuspended in 10 mL of the same buffer with one tablet of EDTA-free mini-protease inhibitor and 10 mg of lysozyme. Cell suspensions were incubated for 45 min at 37°C, and then 200 μL of DNase I was added along with MgSO4 (to a final concentration of 10 mM), followed by three cycles of freeze-thawing (10 min and 20 min, respectively). Four cycles of sonication at maximum power were performed next, each cycle lasting for 30 s with 1 min on ice between cycles. The cell suspension was centrifuged at 12,000 × g for 10 min at 4°C. The supernatant was collected and centrifuged at 100,000 × g for 45 min at 4°C. The pellet was washed three times with 10 mL of 100 mM Na-phosphate, pH 7.0, by resuspension and subsequent centrifugation at 100,000 × g for 10 min at 4°C. The pellet was finally resuspended in 1.5 mL of 100 mM Na-phosphate, pH 7.0, and passed several times through a Dounce homogenizer (tight pestle). […]
Five microliters of total bacterial membrane preparation was mixed with 5 μL of a test compound at a desired concentration in 100 mM Na-phosphate buffer, pH 7.0. […] IC50 values were calculated with Prism software (GraphPad).

Serratia marcescens = test: Broth microdilution MIC (CLSI), Serratia marcescens; assay type: cell-based; conditions: 10 isolates
Text: as §2

Enterobacterales = test: Broth microdilution MIC (CLSI), Enterobacterales; assay type: cell-based
Text: as §2

Klebsiella oxytoca = test: Broth microdilution MIC (CLSI), Klebsiella oxytoca; assay type: cell-based
Text: as §2

[5] = Enterobacterales, 1,028 isolates
[6] = Klebsiella oxytoca, 23 isolates

PBP2 (Klebsiella pneumoniae, UniProt A6T696), sequence (A6T696 entry or part of it): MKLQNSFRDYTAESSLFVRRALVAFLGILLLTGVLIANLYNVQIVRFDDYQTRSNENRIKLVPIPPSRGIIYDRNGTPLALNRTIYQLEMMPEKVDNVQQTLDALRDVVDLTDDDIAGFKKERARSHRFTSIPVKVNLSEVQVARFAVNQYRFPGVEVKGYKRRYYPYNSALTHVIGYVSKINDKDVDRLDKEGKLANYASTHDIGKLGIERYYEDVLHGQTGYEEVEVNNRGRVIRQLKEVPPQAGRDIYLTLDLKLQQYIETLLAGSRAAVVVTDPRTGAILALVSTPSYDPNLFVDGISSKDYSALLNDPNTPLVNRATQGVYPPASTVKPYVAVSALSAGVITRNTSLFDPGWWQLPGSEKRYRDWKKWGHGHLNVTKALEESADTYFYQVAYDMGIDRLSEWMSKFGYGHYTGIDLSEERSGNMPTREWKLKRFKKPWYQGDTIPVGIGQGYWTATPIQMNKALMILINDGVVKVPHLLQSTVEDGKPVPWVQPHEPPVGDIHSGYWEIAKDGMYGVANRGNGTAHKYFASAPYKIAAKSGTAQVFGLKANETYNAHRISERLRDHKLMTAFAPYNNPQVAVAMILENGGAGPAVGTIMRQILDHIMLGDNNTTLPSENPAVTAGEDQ

SMILES	IC50 (PBP2 [1]) [µM]	IC50 (PBP2 [2]) [µM]	frequency of resistance (FOR) (E. coli strain ECM5497)	frequency of resistance (FOR) [3]	MIC50 (Other Enterobacterales) [mg/L]	MIC90 (Other Enterobacterales) [mg/L]	MIC range (Other Enterobacterales) [mg/L]	interaction with PBPs [4]	MIC50 (Serratia marcescens) [mg/L]	MIC90 (Serratia marcescens) [mg/L]	MIC range (Serratia marcescens) [mg/L]	MIC50 (Enterobacterales; [5]) [mg/L]	MIC90 (Enterobacterales; [5]) [mg/L]	MIC range (Enterobacterales; [5]) [mg/L]	MIC (Enterobacterales; read-out: modal MIC) [mg/L]	MIC (Enterobacterales; wild-type strains of Escherichia coli or Klebsiella pneumoniae, read-out: antibacterial potency (MIC)) [mg/L]	MIC (Klebsiella oxytoca; Klebsiella oxytoca isolates, read-out: highest MIC observed) [mg/L]	MIC50 (Klebsiella oxytoca; [6]) [mg/L]	MIC90 (Klebsiella oxytoca; [6]) [mg/L]	MIC range (Klebsiella oxytoca; [6]) [mg/L]
C[C@@H](O)[C@H]1C(=O)N2C(C(=O)O)=C(S[C@@H]3CN[C@H](C(=O)N(C)C)C3)[C@H](C)[C@H]12 [Meropenem]	< 0.08	< 0.02	–	–	–	–	–	–	–	–	–	–	–	–	–	–	–	–	–	–
O=C(O)c1c(F)ccc2c1OB(O)[C@@H]1C[C@H]21 [Xeruborbactam]	–	–	< 2 × 10^−9	< 2 × 10^−9	16 (≈ 72.1 µM)	32 (≈ 144 µM)	8 to 64	No detectable interactions	32 (≈ 144 µM)	32 (≈ 144 µM)	16 to 64	16 (≈ 72.1 µM)	32 (≈ 144 µM)	2 to 64	16 (≈ 72.1 µM)	8 to 16 (≈ 36 to 72.1 µM)	32 (≈ 144 µM)	8 (≈ 36 µM)	16 (≈ 72.1 µM)	8 to 32

— publication PMC9578396, “Intrinsic Antibacterial Activity of Xeruborbactam In Vitro: Assessing Spectrum and Mode of Action” (Antimicrobial Agents and Chemotherapy, 2022)
